Data as given in ChEMBL document CHEMBL3860079, “Design and synthesis of novel HDAC8 inhibitory 2,5-disubstituted-1,3,4-oxadiazoles containing glycine and alanine hybrids with anti cancer activity” (Bioorg Med Chem, 2016).

Assays:
Histone deacetylase 8 = target: T1, Histone deacetylase 8 (Homo sapiens, UniProt Q9BY41); assay: Inhibition of recombinant human full length GST-tagged HDAC8 expressed in Escherichia coli DH5alpha (DE3) assessed as inhibition of deacetylation activity using Fluor-de-Lys as substrate measured after 15 mins by fluorimetric assay
T1 sequence (Q9BY41 whole entry): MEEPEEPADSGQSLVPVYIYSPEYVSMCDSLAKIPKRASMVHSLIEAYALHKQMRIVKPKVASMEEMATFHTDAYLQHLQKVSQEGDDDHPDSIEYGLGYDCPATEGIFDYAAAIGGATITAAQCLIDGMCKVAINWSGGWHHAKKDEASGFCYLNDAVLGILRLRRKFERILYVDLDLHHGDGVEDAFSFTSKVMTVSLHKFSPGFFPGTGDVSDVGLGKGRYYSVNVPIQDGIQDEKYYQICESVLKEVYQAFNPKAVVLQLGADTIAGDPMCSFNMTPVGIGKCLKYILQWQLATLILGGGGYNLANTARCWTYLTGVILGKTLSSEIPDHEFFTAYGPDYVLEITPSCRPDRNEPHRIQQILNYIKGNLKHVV

[1] = Cytotoxicity against human MDA-MB-231 cells assessed as reduction in cell viability measured after 24 hrs by MTT assay; type: functional, cell-based; conditions: MDA-MB-231, 24 h
[2] = target: T2, Histone deacetylase 8 (Homo sapiens) (UniProt Q9BY41); assay: Inhibition of human HDAC8 immunoprecipitated from MDA-MB-231 cell lysates assessed as inhibition of deacetylation activity at 100 nM using Fluor-de-Lys as substrate measured after 15 mins by fluorimetric assay
T2 sequence (whole entry): T1 sequence (Q9BY41 whole entry)

Homo sapiens [3] = species: Homo sapiens; assay: Selectivity ratio of IC50 for human full length GST-tagged HDAC8 expressed in Escherichia coli DH5alpha (DE3) to IC50 for HDAC1 in human MDA-MB-231 cells
Histone deacetylase 3 [4] = target: T3, Histone deacetylase 3 (Homo sapiens, UniProt O15379); assay: Inhibition of HDAC3 in human MDA-MB-231 cells assessed as inhibition of deacetylation activity using Fluor-de-Lys as substrate measured after 15 mins by fluorimetric assay; type: cell-based
T3 sequence (O15379 whole entry): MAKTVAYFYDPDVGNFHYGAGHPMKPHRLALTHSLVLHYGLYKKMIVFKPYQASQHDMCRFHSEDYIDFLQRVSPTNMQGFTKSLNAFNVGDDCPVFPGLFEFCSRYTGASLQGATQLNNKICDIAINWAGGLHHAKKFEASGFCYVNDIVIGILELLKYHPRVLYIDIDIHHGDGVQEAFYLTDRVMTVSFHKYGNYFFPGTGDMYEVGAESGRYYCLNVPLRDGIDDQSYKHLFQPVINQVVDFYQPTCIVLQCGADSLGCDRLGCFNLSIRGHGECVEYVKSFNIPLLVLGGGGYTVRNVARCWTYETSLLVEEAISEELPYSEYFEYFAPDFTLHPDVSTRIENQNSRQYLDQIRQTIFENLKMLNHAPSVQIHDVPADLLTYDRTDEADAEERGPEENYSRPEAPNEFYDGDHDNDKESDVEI

Histone deacetylase 3 [5] = target: T3, Histone deacetylase 3; assay: Inhibition of HDAC3 in human MDA-MB-231 cells assessed as inhibition of deacetylation activity at 100 nM using Fluor-de-Lys as substrate measured after 15 mins by fluorimetric assay; type: cell-based
Histone deacetylase 2 [6] = target: T4, Histone deacetylase 2 (Homo sapiens, UniProt Q92769); assay: Inhibition of HDAC2 in human MDA-MB-231 cells assessed as inhibition of deacetylation activity using Fluor-de-Lys as substrate measured after 15 mins by fluorimetric assay; type: cell-based
T4 sequence (Q92769 whole entry): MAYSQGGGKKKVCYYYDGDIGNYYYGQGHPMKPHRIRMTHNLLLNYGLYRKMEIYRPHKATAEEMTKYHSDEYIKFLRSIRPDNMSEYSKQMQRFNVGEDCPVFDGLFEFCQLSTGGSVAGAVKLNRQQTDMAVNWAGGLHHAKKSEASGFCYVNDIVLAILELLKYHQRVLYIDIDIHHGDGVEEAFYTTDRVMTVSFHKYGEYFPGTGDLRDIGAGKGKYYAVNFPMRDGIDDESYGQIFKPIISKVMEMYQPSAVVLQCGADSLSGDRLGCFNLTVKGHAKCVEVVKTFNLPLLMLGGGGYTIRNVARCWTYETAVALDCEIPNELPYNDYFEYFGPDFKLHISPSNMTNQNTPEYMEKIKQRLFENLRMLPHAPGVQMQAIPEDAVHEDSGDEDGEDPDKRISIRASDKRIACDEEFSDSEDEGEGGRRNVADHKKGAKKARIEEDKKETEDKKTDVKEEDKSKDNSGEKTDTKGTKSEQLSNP

Histone deacetylase 1 [7] = target: T5, Histone deacetylase 1 (Homo sapiens, UniProt Q13547); assay: Inhibition of HDAC1 in human MDA-MB-231 cells assessed as inhibition of deacetylation activity using Fluor-de-Lys as substrate measured after 15 mins by fluorimetric assay; type: cell-based
T5 sequence (Q13547 whole entry): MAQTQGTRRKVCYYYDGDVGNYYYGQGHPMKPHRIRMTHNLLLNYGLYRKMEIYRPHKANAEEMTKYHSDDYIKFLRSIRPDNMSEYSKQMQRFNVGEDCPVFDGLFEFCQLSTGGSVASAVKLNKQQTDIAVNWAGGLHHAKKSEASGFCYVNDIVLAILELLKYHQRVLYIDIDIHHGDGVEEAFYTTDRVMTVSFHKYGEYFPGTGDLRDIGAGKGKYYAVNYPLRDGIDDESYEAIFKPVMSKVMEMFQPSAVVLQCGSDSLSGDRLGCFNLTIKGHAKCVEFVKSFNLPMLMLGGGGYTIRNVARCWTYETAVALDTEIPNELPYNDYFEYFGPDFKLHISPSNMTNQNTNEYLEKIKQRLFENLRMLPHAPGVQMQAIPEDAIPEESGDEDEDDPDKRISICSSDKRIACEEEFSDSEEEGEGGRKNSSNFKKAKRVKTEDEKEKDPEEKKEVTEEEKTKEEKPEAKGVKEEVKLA

Histone deacetylase 2 [8] = target: T4, Histone deacetylase 2; assay: Inhibition of HDAC2 in human MDA-MB-231 cells assessed as inhibition of deacetylation activity at 100 nM using Fluor-de-Lys as substrate measured after 15 mins by fluorimetric assay; type: cell-based
Homo sapiens [9] = species: Homo sapiens; assay: Selectivity ratio of IC50 for human full length GST-tagged HDAC8 expressed in Escherichia coli DH5alpha (DE3) to IC50 for HDAC2 in human MDA-MB-231 cells
Histone deacetylase 1 [10] = target: T5, Histone deacetylase 1; assay: Inhibition of HDAC1 in human MDA-MB-231 cells assessed as inhibition of deacetylation activity at 100 nM using Fluor-de-Lys as substrate measured after 15 mins by fluorimetric assay; type: cell-based

| IC50 (Histone deacetylase 8) | Compound | IC50 [1] | further results |
| --- | --- | --- | --- |
| 116 nM | C[C@@H](N)C(=O)NCc1nnc(-c2ccc(F)cc2)o1 | 247 nM | – |
| 121 nM | Cc1ccc(-c2nnc(CNC(=O)[C@@H](C)N)o2)cc1 | 254 nM | – |
| 127 nM | C[C@@H](N)C(=O)NCc1nnc(-c2ccc([N+](=O)[O-])cc2)o1 | 261 nM | – |
| 135 nM | NCC(=O)NCc1nnc(-c2ccc(F)cc2)o1 | 254 nM | – |
| 134 nM | NCC(=O)NCc1nnc(-c2ccc([N+](=O)[O-])cc2)o1 | 276 nM | – |
| 142 nM | COc1ccc(-c2nnc(CNC(=O)CN)o2)cc1 | 276 nM | – |
| 153 nM | COc1ccc(-c2nnc(CNC(=O)[C@@H](C)N)o2)cc1 | 295 nM | – |
| 139 nM | Cc1ccc(-c2nnc(CNC(=O)CN)o2)cc1 | 260 nM | – |
| 98 to 100 nM | C[C@@H](N)C(=O)NCc1nnc(-c2ccccc2)o1 | 230 nM | inhibition [2]: 53%; Ratio IC50 (Homo sapiens [3]): 0.38; IC50 (Histone deacetylase 3 [4]): > 10000 nM; inhibition (Histone deacetylase 3 [5]): 0%; IC50 (Histone deacetylase 2 [6]): 135 nM; IC50 (Histone deacetylase 1 [7]): 260 nM; inhibition (Histone deacetylase 2 [8]): 19%; Ratio IC50 (Homo sapiens [9]): 0.74; inhibition (Histone deacetylase 1 [10]): 30% |
| 155 nM | NCC(=O)NCc1nnc(-c2ccccc2)o1 | 283 nM | – |
